Source: patent publication US7053043B1, “Pharmaceutical compositions comprising synthetic peptide copolymers and methods for preventing and treating GVHD and HVGD” (Yeda Research and Development Co.Ltd., priority 1999, dated 2006)

Assays:
[1] = tested on: T cell proliferation in MHC-disparate mixed lymphocyte cultures; experiment: Mixed lymphocyte cultures across major histocompatibility barriers, six MHC-disparate strain combinations; type: cell-based, mice
Description: Responder cells for MLR reactions across major histocompatibility barriers were harvested from spleen of non-immunized mice while responder cells for MLR across minor histocompatibility barriers were harvested from mice which were preimmunized with irradiated (30 Gy) 50×10^6 stimulator spleen cells 21 days before. Responder cells (5×10^5 spleen cells per well) were tested for their proliferative response by plating with different amounts (2.5 to 10×10^5) of irradiated stimulator cells, in presence or absence of various peptide inhibitors (10–100 μg per well). Cultures were set up in 200 μl media containing 10% FCS in flat-bottom microtiter plates. After 4 days of incubation, cultures were pulsed with 1 μCi of [^3H]thymidine for an additional 16 hours. Results are represented as mean counts per minute (cpm) thymidine incorporation from triplicate cultures.

[2] = tested on: B10.D2 responder T cells with APC presenting BALB/c mH antigens; experiment: Proliferative responses to minor H antigens in vitro, Cop 1 present in the assay; type: cell-based, mice; details: for cpm (Cop 1 Assay Concentration): Resp. + APC
Description: B10.D2 mice were injected ip. with irradiated (20 Gy) BALB/c spleen cells 72 hours prior to the assay. B10.D2 spleen cells were harvested, depleted of red blood cells (RBC) and used as irradiated (10 Gy) antigen-presenting cells (APC) presenting BALB/c mH antigens. For the primary assay, APC were plated at 2.5×10^5 cells per well in 96-well round-bottom plates and incubated with 2.5×10^5 nylon-wool-enriched responder T cells (>88% CD3^+ by FACS […]). After 96 hours of incubation, cells were pulsed with 1 μCi [^3H]-thymidine for an additional 16 hours before harvesting. In the secondary assay, irradiated APC were plated at 2.5×10^5 cells/well in 96-well round-bottom plates, preincubated for 24 hours at 37° C. with increasing concentrations of GLAT (2.5–80 μg/well) or with medium alone, and thereafter washed three times before the addition of 2.5×10^5 nylon-wool-enriched responder T cells from naive B10.D2 mice. Culture medium was RPMI 1640, supplemented with 10% pre-screened fetal calf serum, 2 mM glutamine, 50 μM 2-mercaptoethanol, 100 U/ml penicillin, and 100 μg/ml streptomycin.
B10.D2 mice were injected ip with irradiated (20 Gy) BALB/c spleen cells 72 hours prior to the assay. B10.D2 spleen cells were harvested, depleted of RBC and used as irradiated (10 Gy) APC presenting BALB/c mH antigens. APC were plated at 2.5×10^5 cells/well in 96-well round-bottom plates and incubated with 2.5×10^5 nylon-wool-enriched responder T cells (>88% CD3^+ by FACS analysis) from naive B10.D2 mice in the presence or absence of increasing concentrations of Copolymer 1 (Batch I) (2.5–80 μg/well). After 96 hours of incubation, cells were pulsed with 1 μCi [^3H]-thymidine for an additional 16 hours before harvesting. […] Maximum inhibition was 100% at a concentration of 80 μg/well.

[3] = tested on: GVHD in B10.D2 → BALB/c recipients; experiment: Murine lethal GVHD model after bone marrow transplantation, B10.D2/nSnJ→BALB/c; type: in vivo, mice; details: for overall incidence of GVHD: 600 μg per injection (ip + sc)
Description: The murine GVHD model of B10.D2/nSnJ→BALB/c mice (both H-2^d) across minor histocompatibility barriers, was selected since it is similar to the MHC matched bone marrow transplantation in humans. For the induction of GVHD, 10×10^6 bone marrow and 100×10^6 spleen cells from B10.D2 mice were injected into lethally irradiated (8.0 Gy) BALB/c recipients. […] Recipient mice were 12–13 weeks at the time of transplantation.
Based on previous studies with Cop 1 in EAE (Sela et al., 1990; Teitelbaum et al., 1971; Teitelbaum et al., 1973) and class II-binding competitor peptides in GVHD (Schlegel et al., 1994), the dosage of 600 μg per injection was selected, half of which was administered intraperitoneally (ip), whereas the other half was given subcutaneously (sc). Treatment of BALB/c recipient mice was initiated on day −1, followed by daily injections for the first five weeks starting on day 0 after transplantation. The frequency of injections was tapered to three times per week for the subsequent two weeks and to two times per week for another two weeks and then discontinued. Throughout the experiment, copolymers and controls were administered once a week with incomplete Freund's adjuvant (IFA) ip as a depot dose (Schlegel et al., 1994). Treatment was discontinued 9 weeks after transplantation.
Mice were followed up daily for 140 days after bone marrow transplantation for signs of GVHD. Disease severity was assessed by mortality, loss of body weight, and by the extent of macroscopic skin involvement scored on a cumulative scale (from min O— max 8): head 1, neck 1, back (1/3, 2/3, 3/3) 1–3, front (1/3, 2/3, 3/3) 1–3. Skin biopsies were examined as previously described (Schlegel et al., 1994).
(ii) Effect of Copolymer 1 Treatment on the Incidence, Onset and Severity of GVHD. […] For the first five weeks after transplant mice were injected daily as outlined in Materials and Methods, followed by a tapering schedule over an additional four weeks.
(iii) Effect of Copolymer 1 treatment on survival. […]

For Glatiramer acetate [Cop 1], the “inhibitory effect on the MLC” value ([1]; 10–100 μg/well, all concentrations tested) was “dose-dependent inhibition”, the “concentration sufficient to achieve 50% inhibition of the proliferative responses” value ([1]; Batch I) was 10–25 μg/well and the Maximum inhibition ([1]; all strain combinations tested) was 100%. For the same substance, the “Maximum inhibition of proliferative responses to mH antigens” value ([2]; 80 μg/well) was 100%, the “cpm (Cop 1 Assay Concentration)” value ([2]; Cop 1 1.5 μg) was 124,904 cpm and the “cpm (Cop 1 Assay Concentration)” value ([2]; Cop 1 5 μg) was 126,405 cpm. The “cpm (Cop 1 Assay Concentration)” value ([2]; Cop 1 10 μg) was 119,866 cpm, the “cpm (Cop 1 Assay Concentration)” value ([2]; Cop 1 20 μg) was 75,840 cpm and the “cpm (Cop 1 Assay Concentration)” value ([2]; Cop 1 40 μg) was 23,591 cpm. The “cpm (Cop 1 Assay Concentration)” value ([2]; Cop 1 80 μg) was 361 cpm, the “long-term survival from lethal graft-versus-host disease” value ([3]; 600 μg per injection) was “improved long-term survival” and the “animals (without GVHD) to the observation period of 140 days after transplant” value ([3]; 600 μg per injection, Batch I) was “Nine of 25”. For the same substance, the “mice survived more than 140 days after transplant” value ([3]; 600 μg per injection, Batch I) was 56%, the “overall disease severity (disease severity score, mean body weight curves)” value ([3]; 600 μg per injection, Batch I) was “improved overall disease severity” and the “overall incidence of GVHD” value ([3]; day 30 after transplant, Cop 1 Batch I) was 12%. For the same substance, the “overall incidence of GVHD” value ([3]; day 70 after transplant, Cop 1 Batch I) was 48%, the “median onset of GVHD” value ([3]; days after transplant, 600 μg per injection) was 73 days and the “onset of GVHD, range” value ([3]; days after transplant, in 12/25 treated animals, 600 μg per injection) was 32 to 112 days. The “mice survived more than 140 days after transplant” value ([3]; survivors/treated, 600 μg per injection, Cop 1 Batch I) was 14/25.
